Assay results from patent US20100311714A1, “1H-IMIDAZO[4,5-c]QUINOLINONE COMPOUNDS” (priority 2009, published 2010).
Where two headings read alike, the source gives them in different places.

Columns and labels:
PI3K alfa = molecular target: T1, PI3K alfa (Homo sapiens, UniProt P42336); assay: PI3K alpha kinase assay (Kinase-Glo luminescence); type: biochemical
T1 construct: His tag (C); made in house; host or cells: baculovirus BV1075; Tn5 (Trichoplusia ni) or TiniPro insect cells
Method in brief: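 Kinase-Glo luminescence read of ATP remaining after PI3Kα (10 nM) phosphorylates 10 μg/mL bovine liver phosphatidylinositol with 1 μM ATP, pH 7.5 TRIS, 3 mM MgCl2, 0.05% CHAPS; 60 min at room temperature. IC50 from 4-parameter logistic fit over 8 concentrations.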

[1] = test system: S6 Ribosomal Protein phosphorylation Ser235/236 in TSC1 null mouse embryo fibroblast (MEF) cells; assay: Reverse protein array, S6 Ribosomal Protein phosphorylation in TSC1 null MEF cells; type: cell-based; details: 1 h, TSC1-/- MEFs, 60 minutes
Method in brief: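 Phospho-S6 (Ser235/236) was quantified by reverse protein array of cell lysates with a phospho-specific primary antibody. […]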

T1 sequence (P42336 with tags, fused parts or gaps limits assumed): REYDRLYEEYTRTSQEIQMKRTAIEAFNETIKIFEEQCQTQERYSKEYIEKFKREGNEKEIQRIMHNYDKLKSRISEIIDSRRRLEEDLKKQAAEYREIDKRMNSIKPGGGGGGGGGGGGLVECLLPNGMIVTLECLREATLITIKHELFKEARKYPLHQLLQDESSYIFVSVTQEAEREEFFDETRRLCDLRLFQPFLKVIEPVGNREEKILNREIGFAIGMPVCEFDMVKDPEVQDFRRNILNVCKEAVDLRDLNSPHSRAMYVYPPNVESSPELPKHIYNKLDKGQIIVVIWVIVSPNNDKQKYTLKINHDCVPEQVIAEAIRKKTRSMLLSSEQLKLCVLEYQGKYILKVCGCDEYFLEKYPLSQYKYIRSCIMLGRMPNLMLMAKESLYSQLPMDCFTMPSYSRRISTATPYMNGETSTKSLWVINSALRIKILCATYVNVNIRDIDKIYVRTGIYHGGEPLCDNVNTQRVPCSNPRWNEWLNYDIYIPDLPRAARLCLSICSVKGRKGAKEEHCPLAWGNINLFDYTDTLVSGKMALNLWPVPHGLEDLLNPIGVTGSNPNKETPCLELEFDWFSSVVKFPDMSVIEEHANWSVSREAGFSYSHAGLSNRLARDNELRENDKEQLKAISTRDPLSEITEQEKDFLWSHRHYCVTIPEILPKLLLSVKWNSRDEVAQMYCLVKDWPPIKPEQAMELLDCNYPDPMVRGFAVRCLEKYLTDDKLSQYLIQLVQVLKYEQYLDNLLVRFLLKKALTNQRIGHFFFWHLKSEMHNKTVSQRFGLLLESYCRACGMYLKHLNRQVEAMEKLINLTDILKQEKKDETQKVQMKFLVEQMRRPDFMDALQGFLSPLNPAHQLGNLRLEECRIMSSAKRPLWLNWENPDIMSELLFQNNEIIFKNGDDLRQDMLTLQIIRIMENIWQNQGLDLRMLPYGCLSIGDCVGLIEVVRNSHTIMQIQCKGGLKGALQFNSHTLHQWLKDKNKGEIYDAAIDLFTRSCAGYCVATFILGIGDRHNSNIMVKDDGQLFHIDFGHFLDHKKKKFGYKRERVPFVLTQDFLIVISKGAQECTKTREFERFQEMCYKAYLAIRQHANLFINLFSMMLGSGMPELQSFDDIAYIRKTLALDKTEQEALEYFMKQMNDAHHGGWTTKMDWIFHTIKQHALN

Structure (SMILES)	IC50 (PI3K alfa; read-out: EPK_PI3Kalfa/IC50) [nM]	IC50 (PI3K alfa; read-out: PI3Kalfa/IC50) [nM]	IC50 ([1]; read-out: p-S6 IC50) [nM]	IC50 ([1]; read-out: p-S6) [nM]
CNc1ccc(-c2ccc3ncc4c(c3c2)n(-c2ccc(N(C)CCOC)nc2C)c(=O)n4C)cn1 [Example 15.4, 1-{6-[(2-Methoxy-ethyl)-methyl-amino]-2-methyl-pyridin-3-yl}-3-methyl-8-(6-methylamino-pyridin-3-yl)-1,3-dihydro-imidazo[4,5-c]quinolin-2-one]	46	–	3	–
Cc1nc(F)ccc1-n1c(=O)n(C)c2cnc3ccc(-c4cnc(N)c(CO)c4)cc3c21 [Example 7.17, 8-(6-Amino-5-hydroxymethyl-pyridin-3-yl)-1-(6-fluoro-2-methyl-pyridin-3-yl)-3-methyl-1,3-dihydro-imidazo[4,5-c]quinolin-2-one]	64	–	5	–
COCc1ncc(-c2ccc3ncc4c(c3c2)n(-c2ccc(OC)nc2OC)c(=O)n4C)cc1OC [Example 8.12, 1-(2,6-Dimethoxy-pyridin-3-yl)-8-(5-methoxy-6-methoxymethyl-pyridin-3-yl)-3-methyl-1,3-dihydro-imidazo[4,5-c]quinolin-2-one]	41	–	4	–
CCN(C)c1ccc(-n2c(=O)n(C)c3cnc4ccc(-c5ccc(NC)nc5)cc4c32)c(C)n1 [Example 12.1, 1-[6-(Ethyl-methyl-amino)-2-methyl-pyridin-3-yl]-3-methyl-8-(6-methylamino-pyridin-3-yl)-1,3-dihydro-imidazo[4,5-c]quinolin-2-one]	36	–	< 0.457	–
COCC(=O)Nc1ccc(-n2c(=O)n(C)c3cnc4ccc(-c5cncc(N)c5)cc4c32)c(C)n1 [Example 20.1, N-{5-[8-(5-Amino-pyridin-3-yl)-3-methyl-2-oxo-2,3-dihydro-imidazo[4,5-c]quinolin-1-yl]-6-methyl-pyridin-2-yl}-2-methoxy-acetamide]	50	–	32	–
CCOc1ccc(-c2ccc3ncc4c(c3c2)n(-c2ccc(N(C)CCOC)nc2C)c(=O)n4C)cn1 [Example 15.3, 8-(6-Ethoxy-pyridin-3-yl)-1-{6-[(2-methoxy-ethyl)-methyl-amino]-2-methyl-pyridin-3-yl}-3-methyl-1,3-dihydro-imidazo[4,5-c]quinolin-2-one]	103	–	130	–
CNc1ccc(-c2ccc3ncc4c(c3c2)n(-c2cccnc2OC)c(=O)n4C)cn1 [Example 1.4, 1-(2-Methoxy-pyridin-3-yl)-3-methyl-8-(6-methylamino-pyridin-3-yl)-1,3-dihydro-imidazo[4,5-c]quinolin-2-one]	–	48	–	8.24
Cc1nc(F)ccc1-n1c(=O)n(C)c2cnc3ccc(-c4cncc(N)c4)cc3c21 [Example 7.16, 8-(5-Amino-pyridin-3-yl)-1-(6-fluoro-2-methyl-pyridin-3-yl)-3-methyl-1,3-dihydro-imidazo[4,5-c]quinolin-2-one]	101	–	26	–
CCOc1ccc(-c2ccc3ncc4c(c3c2)n(-c2cncc(C)c2)c(=O)n4C)cn1 [Example 17.1, 8-(6-Ethoxy-pyridin-3-yl)-3-methyl-1-(5-methyl-pyridin-3-yl)-1,3-dihydro-imidazo[4,5-c]quinolin-2-one]	78	–	29	–
COCCN(C)c1ccc(-n2c(=O)n(C)c3cnc4ccc(-c5cnc(N(C)C)nc5)cc4c32)c(C)n1 [Example 15.5, 8-(2-Dimethylamino-pyrimidin-5-yl)-1-{6-[(2-methoxy-ethyl)-methyl-amino]-2-methyl-pyridin-3-yl}-3-methyl-1,3-dihydro-imidazo[4,5-c]quinolin-2-one]	31	–	19	–
Cc1ccc(-n2c(=O)n(C)c3cnc4ccc(-c5cncc(NC(C)C)c5)cc4c32)c(C)n1 [Example 14.8, 1-(2,6-Dimethyl-pyridin-3-yl)-8-(5-isopropylamino-pyridin-3-yl)-3-methyl-1,3-dihydro-imidazo[4,5-c]quinolin-2-one]	37	–	2	–
CNc1ccc(-c2ccc3ncc4c(c3c2)n(-c2ccc(NC(=O)COC)nc2C)c(=O)n4C)cn1 [Example 20.4, 2-Methoxy-N-{6-methyl-5-[3-methyl-8-(6-methylamino-pyridin-3-yl)-2-oxo-2,3-dihydro-imidazo[4,5-c]quinolin-1-yl]-pyridin-2-yl}-acetamide]	39	–	63	–
COc1ccc(-c2ccc3ncc4c(c3c2)n(-c2cccnc2OC)c(=O)n4C)cn1 [Example 1.1, 1-(2-Methoxy-pyridin-3-yl)-8-(6-methoxy-pyridin-3-yl)-3-methyl-1,3-dihydro-imidazo[4,5-c]quinolin-2-one]	–	23	–	24.5
CNc1ncc(-c2ccc3ncc4c(c3c2)n(-c2cnc(F)cc2C)c(=O)n4C)cn1 [Example 16.3, 1-(6-Fluoro-4-methyl-pyridin-3-yl)-3-methyl-8-(2-methylamino-pyrimidin-5-yl)-1,3-dihydro-imidazo[4,5-c]quinolin-2-one]	71	–	22	–
CNc1ccc(-c2ccc3ncc4c(c3c2)n(-c2cnc(F)cc2C)c(=O)n4C)cn1 [Example 16.4, 1-(6-Fluoro-4-methyl-pyridin-3-yl)-3-methyl-8-(6-methylamino-pyridin-3-yl)-1,3-dihydro-imidazo[4,5-c]quinolin-2-one]	47	–	5	–

Further compounds by falling IC50 (PI3K alfa; read-out: EPK_PI3Kalfa/IC50), results first:

IC50 (PI3K alfa; read-out: EPK_PI3Kalfa/IC50) [nM]	IC50 (PI3K alfa; read-out: PI3Kalfa/IC50) [nM]	Structure (SMILES)	IC50 ([1]; read-out: p-S6 IC50) [nM]	IC50 ([1]; read-out: p-S6) [nM]
21	–	Cc1nc(N2CCC(O)C2)ccc1-n1c(=O)n(C)c2cnc3ccc(-c4cncc(OC(C)C)c4)cc3c21 (stereo not shown) [Example 27.1, 1-[6-(3-Hydroxy-pyrrolidin-1-yl)-2-methyl-pyridin-3-yl]-8-(5-isopropoxy-pyridin-3-yl)-3-methyl-1,3-dihydro-imidazo[4,5-c]quinolin-2-one]	2	–
20	–	CCNc1cc(-c2ccc3ncc4c(c3c2)n(-c2ccc(F)nc2C)c(=O)n4C)cnc1CO [Example 7.9, 8-(5-Ethylamino-6-hydroxymethyl-pyridin-3-yl)-1-(6-fluoro-2-methyl-pyridin-3-yl)-3-methyl-1,3-dihydro-imidazo[4,5-c]quinolin-2-one]	5	–
15	–	CNc1cc(-c2ccc3ncc4c(c3c2)n(-c2ccc(C(F)(F)F)nc2C)c(=O)n4C)cnc1CO [Example 33.2, 8-(6-Hydroxymethyl-5-methylamino-pyridin-3-yl)-3-methyl-1-(2-methyl-6-trifluoromethyl-pyridin-3-yl)-1,3-dihydro-imidazo[4,5-c]quinolin-2-one]	2	–
14	–	Cc1cc(F)ncc1-n1c(=O)n(C)c2cnc3ccc(-c4cnc(N)c(C(F)(F)F)c4)cc3c21 [Example 16.1, 8-(6-Amino-5-trifluoromethyl-pyridin-3-yl)-1-(6-fluoro-4-methyl-pyridin-3-yl)-3-methyl-1,3-dihydro-imidazo[4,5-c]quinolin-2-one]	< 0.457	–
13	–	CCNc1cc(-c2ccc3ncc4c(c3c2)n(-c2ccc(OCCOC)nc2C)c(=O)n4C)cnc1C [Example 13.4, 8-(5-Ethylamino-6-methyl-pyridin-3-yl)-1-[6-(2-methoxy-ethoxy)-2-methyl-pyridin-3-yl]-3-methyl-1,3-dihydro-imidazo[4,5-c]quinolin-2-one]	1	–
12	–	CCNc1cc(-c2ccc3ncc4c(c3c2)n(-c2ccc(N(C)CCOC)nc2C)c(=O)n4C)cnc1C [Example 15.6, 8-(5-Ethylamino-6-methyl-pyridin-3-yl)-1-{6-[(2-methoxy-ethyl)-methyl-amino]-2-methyl-pyridin-3-yl}-3-methyl-1,3-dihydro-imidazo[4,5-c]quinolin-2-one]	3	–
11	–	CCNc1cc(-c2ccc3ncc4c(c3c2)n(-c2ccc(N3CC(F)(F)C3)nc2C)c(=O)n4C)cnc1CO [Example 24.3, 1-[6-(3,3-Difluoro-azetidin-1-yl)-2-methyl-pyridin-3-yl]-8-(5-ethylamino-6-hydroxymethyl-pyridin-3-yl)-3-methyl-1,3-dihydro-imidazo[4,5-c]quinolin-2-one]	< 0.457	–
11	–	COCCOc1cc(-c2ccc3ncc4c(c3c2)n(-c2ccc(OC)nc2OC)c(=O)n4C)cnc1C [Example 8.9, 1-(2,6-Dimethoxy-pyridin-3-yl)-8-[5-(2-methoxy-ethoxy)-6-methyl-pyridin-3-yl]-3-methyl-1,3-dihydro-imidazo[4,5-c]quinolin-2-one]	4	–
7	–	Cc1nc(N2CC(F)(F)C(F)(F)C2)ccc1-n1c(=O)n(C)c2cnc3ccc(-c4cncc(C(C)(C)O)c4)cc3c21 [Example 35.1, 8-[5-(1-Hydroxy-1-methyl-ethyl)-pyridin-3-yl]-3-methyl-1-[2-methyl-6-(3,3,4,4-tetrafluoro-pyrrolidin-1-yl)-pyridin-3-yl]-1,3-dihydro-imidazo[4,5-c]quinolin-2-one]	0.79	–
7	–	COCCN(C)c1ccc(-n2c(=O)n(C)c3cnc4ccc(-c5cnc(N)c(C(F)(F)F)c5)cc4c32)c(C)n1 [Example 15.1, 8-(6-Amino-5-trifluoromethyl-pyridin-3-yl)-1-{6-[(2-methoxy-ethyl)-methyl-amino]-2-methyl-pyridin-3-yl}-3-methyl-1,3-dihydro-imidazo[4,5-c]quinolin-2-one]	1	–
5	–	COc1ccc(-n2c(=O)n(C)c3cnc4ccc(-c5cnc(N(C)C)nc5)cc4c32)c(Cl)n1 [Example 18.3, 1-(2-Chloro-6-methoxy-pyridin-3-yl)-8-(2-dimethylamino-pyrimidin-5-yl)-3-methyl-1,3-dihydro-imidazo[4,5-c]quinolin-2-one]	4.3	–
